PubChem BioAssay (NCI)
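These data come from cells grown in 96-well plates and exposed to compound for 48 hours at five concentrations. GI50 is the concentration that inhibits growth by half. TGI marks complete inhibition of growth.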

Key:
Assay in all cases: growth of human tumour cells (NCI), 48 h
EKVX NSCLC = test system: EKVX NSCLC
HT29 colon = test system: HT29 colon
LOX IMVI melanoma = test system: LOX IMVI melanoma
M14 melanoma = test system: M14 melanoma
NCI-H226 lung = test system: NCI-H226 lung
OVCAR-8 ovarian = test system: OVCAR-8 ovarian
OVCAR-3 ovarian = test system: OVCAR-3 ovarian
SR leukemia = test system: SR leukemia
DU-145 prostate = test system: DU-145 prostate
HS 578T breast = test system: HS 578T breast

Structure (SMILES)	GI50 (EKVX NSCLC)	TGI (EKVX NSCLC)	GI50 (HT29 colon)	TGI (HT29 colon)	GI50 (LOX IMVI melanoma)	TGI (LOX IMVI melanoma)	GI50 (M14 melanoma)	TGI (M14 melanoma)	GI50 (NCI-H226 lung)	TGI (NCI-H226 lung)	GI50 (OVCAR-8 ovarian)	TGI (OVCAR-8 ovarian)	TGI (OVCAR-3 ovarian)	TGI (SR leukemia)	TGI (DU-145 prostate)	TGI (HS 578T breast)	GI50 (DU-145 prostate)	GI50 (HS 578T breast)	GI50 (OVCAR-3 ovarian)	GI50 (SR leukemia)
CC(=O)[CH-]C(=O)c1ccccc1.CC(=O)[CH-]C(=O)c1ccccc1.CN(C)c1ccc([O-])cc1.CN(C)c1ccc([O-])cc1.Cl.[Ti+4]	24.6 µM	> 31.6 µM	18.1 µM	> 31.6 µM	26 µM	> 100 µM	17.5 µM	> 31.6 µM	18.2 µM	30.9 µM	21.9 µM	> 31.6 µM	–	–	–	–	–	–	–	–
COC(=O)C1(C(C)C)CCc2c(OC)ccc(OC)c2C1=O (stereo unspecified)	–	> 100 µM	–	> 100 µM	–	> 100 µM	–	> 100 µM	–	–	–	> 100 µM	> 100 µM	–	–	–	–	–	–	–
O=C(CC(=O)c1cccc2ccccc12)C(=O)Nc1ccc(Cl)cc1	–	> 100 µM	–	> 100 µM	–	> 100 µM	–	> 100 µM	–	> 100 µM	–	> 100 µM	> 100 µM	–	–	–	–	–	–	–
COc1cc2cc(OC)c3cc4c(cc3c2c(OC)c1OC)OCO4	–	> 92 µM	–	30.7 µM	–	31 µM	–	> 62.1 µM	–	> 100 µM	–	> 100 µM	> 100 µM	82.6 µM	–	–	–	–	–	–
Cc1cnc(NCCCN(C)C)c2c1[nH]c1ccc3cc(O)ccc3c12	–	4.34 µM	–	2.53 µM	–	1.37 µM	–	2.55 µM	–	1.73 µM	–	1.96 µM	1.59 µM	–	4.03 µM	2.22 µM	–	–	–	–
CCn1c(C)nn2c(=O)c3ccccc3nc2c1=O	–	> 100 µM	–	> 100 µM	–	> 100 µM	–	> 100 µM	–	–	–	> 100 µM	> 100 µM	–	–	–	–	–	–	–
CCN(CC)N=Nc1c(C(N)=O)n[nH]c1C	–	> 100 µM	–	> 100 µM	–	> 100 µM	–	> 100 µM	–	> 100 µM	–	> 100 µM	> 100 µM	–	> 100 µM	> 100 µM	–	–	–	–
CC1(C)C(=O)/C=C\C(=O)C(C)(C)C2=CC=C(O2)C(C)(C)C(=O)/C=C\C(=O)C(C)(C)C2=CC=C1O2	–	> 100 µM	–	> 100 µM	–	> 100 µM	–	–	–	> 100 µM	–	> 100 µM	> 100 µM	> 100 µM	–	–	–	–	–	–
Cc1nc2c(ccc3ncccc32)[nH]1	–	> 100 µM	–	> 100 µM	–	> 100 µM	–	> 100 µM	–	–	–	> 100 µM	> 100 µM	–	–	–	–	–	–	–
CCCC1C(=O)CCc2c(OC)ccc(OC)c21 (stereo unspecified)	–	> 100 µM	–	> 100 µM	–	> 100 µM	–	> 100 µM	–	–	–	> 100 µM	> 100 µM	–	–	–	–	–	–	–
COC(=O)CC[N+]1=CCC(c2ccccc2)(c2ccccc2)O1	–	> 100 µM	–	> 100 µM	–	–	–	> 100 µM	–	> 100 µM	–	> 100 µM	> 100 µM	–	> 100 µM	> 100 µM	–	–	–	–
CN1CCCCC1CCN1c2ccccc2Sc2ccc(Cl)cc21 (stereo unspecified)	–	–	3.17 µM	11.1 µM	–	–	2.02 µM	3.97 µM	12.9 µM	32.1 µM	3.83 µM	12.5 µM	14.6 µM	–	17.6 µM	8.79 µM	5.5 µM	2.25 µM	4.04 µM	3.2 µM
O=C(O)CCNCCCNCCC(=O)O	–	> 100 µM	–	> 100 µM	–	> 100 µM	–	> 100 µM	–	> 100 µM	–	> 100 µM	> 100 µM	–	–	–	–	–	–	–
COC(=O)/C(C#N)=C1\NC(=O)c2ccccc21	–	> 100 µM	–	> 100 µM	–	> 100 µM	–	> 100 µM	–	> 100 µM	–	> 100 µM	> 100 µM	> 100 µM	–	–	–	–	–	–
CCN1CCN(Cc2ccc(NC(=O)c3cccc(C#Cc4cccc5[nH]nc(N)c45)c3)cc2C(F)(F)F)CC1	1.41 µM	2.73 µM	0.118 µM	1.16 µM	–	–	0.0622 µM	0.547 µM	–	–	0.395 µM	1.53 µM	2.17 µM	0.732 µM	1.68 µM	3.19 µM	0.419 µM	0.518 µM	0.615 µM	0.238 µM
CCOC(=O)C(C)(C)Oc1ccc2c(-c3ccccc3)cc(=O)oc2c1	–	> 100 µM	–	–	–	49.4 µM	–	> 100 µM	–	87.4 µM	–	> 100 µM	> 100 µM	88.7 µM	–	–	–	–	–	–
Cc1cc(NS(=O)(=O)c2ccc(Nc3c4ccccc4nc4c(C(=O)N5CCN(CCOS(C)(=O)=O)CC5)cccc34)cc2)no1	–	–	–	> 100 µM	–	–	–	> 100 µM	–	> 100 µM	–	> 100 µM	> 100 µM	–	–	–	–	–	–	–
COc1cc2ccnc([C@@H](OC(=O)c3ccccc3)c3ccc(OC)c(OC)c3OC)c2cc1OC	–	> 100 µM	–	> 100 µM	–	> 100 µM	–	> 100 µM	–	> 100 µM	–	> 100 µM	> 100 µM	–	–	–	–	–	–	–
COC1/C=C/OC2(C)Oc3c(C)c(O)c4c(O)c(c(/C=N/Nc5ccc([N+](=O)[O-])cc5[N+](=O)[O-])c(O)c4c3C2=O)NC(=O)C(C)=C/C=C/C(C)C(O)C(C)C(O)C(C)C(OC(C)=O)C1C (stereo unspecified)	4.75 µM	> 50 µM	–	–	1.03 µM	2.32 µM	1.61 µM	5.86 µM	1.35 µM	3.89 µM	1.41 µM	3.93 µM	2.52 µM	–	9.32 µM	3.59 µM	2.55 µM	0.97 µM	1.1 µM	–
CCOC1Oc2ccccc2C(=O)/C1=C/Nc1ccc(C(C)=O)cc1 (stereo unspecified)	25.4 µM	93.6 µM	36.3 µM	> 100 µM	18.9 µM	58.5 µM	17.4 µM	35.9 µM	26.7 µM	68.1 µM	16.3 µM	45 µM	43.8 µM	–	> 100 µM	52 µM	29.6 µM	17.9 µM	17.2 µM	–
O=C(Nc1nc2ccc([N+](=O)[O-])cc2s1)C(=O)C(C1OC(=O)c2ccccc21)[N+](=O)[O-] (stereo unspecified)	–	> 100 µM	–	> 100 µM	–	> 100 µM	–	> 100 µM	–	> 100 µM	–	> 100 µM	> 100 µM	> 100 µM	–	–	–	–	–	–
